Experimental data published in paper PMC4297448, “Detection of distinct glycosylation patterns on human γ-glutamyl transpeptidase 1 using antibody-lectin sandwich array (ALSA) technology” (BMC Biotechnology, 2014).

Molecular target: T1, microvirin (MVN) (Microcystis aeruginosa, UniProt Q2MDE2)
T1 construct: full-length, N-terminal hexahistidine tag (pET-15b), E. coli BL21(DE3), Ni-NTA purified, biotinylated with NHS-SS-biotin
T1 sequence (Q2MDE2 1-108): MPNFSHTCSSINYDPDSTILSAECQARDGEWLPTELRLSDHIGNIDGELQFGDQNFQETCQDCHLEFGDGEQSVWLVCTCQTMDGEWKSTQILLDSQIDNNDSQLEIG
Assay: CFG glycan microarray V5.[…], fluorescence
Type: binding
Conditions: biotinylated MVN 200 μg/mL, Alexa Fluor 488-avidin; glycan immobilised via spacer

Compound | Fluorescence (%) ^a [%]
CC(=O)N[C@@H]1[C@@H](O)[C@H](O[C@@H]2O[C@H](CO)[C@@H](O[C@@H]3O[C@H](CO[C@H]4O[C@H](CO[C@H]5O[C@H](CO)[C@@H](O)[C@H](O)[C@@H]5O)[C@@H](O)[C@H](O[C@H]5O[C@H](CO)[C@@H](O)[C@H](O)[C@@H]5O[C@H]5O[C@H](CO)[C@@H](O)[C@H](O)[C@@H]5O)[C@@H]4O)[C@@H](O)[C@H](O[C@H]4O[C@H](CO)[C@@H](O)[C@H](O)[C@@H]4O[C@H]4O[C@H](CO)[C@@H](O)[C@H](O)[C@@H]4O)[C@@H]3O)[C@H](O)[C@H]2NC(C)=O)[C@@H](CO)O[C@H]1NC(=O)C[C@H](N)C(=O)O [compound 211, Manα1-6(Manα1-2Manα1-3)Manα1-6(Manα1-2Manα1-3)Manβ1-4GlcNAcβ1-4GlcNAcβ-Sp12] | 31.7
CC(=O)N[C@@H]1[C@@H](O)[C@H](O[C@@H]2O[C@H](CO)[C@@H](O[C@@H]3O[C@H](CO[C@H]4O[C@H](CO[C@H]5O[C@H](CO)[C@@H](O)[C@H](O)[C@@H]5O[C@H]5O[C@H](CO)[C@@H](O)[C@H](O)[C@@H]5O)[C@@H](O)[C@H](O[C@H]5O[C@H](CO)[C@@H](O)[C@H](O)[C@@H]5O)[C@@H]4O)[C@@H](O)[C@H](O[C@H]4O[C@H](CO)[C@@H](O)[C@H](O)[C@@H]4O[C@H]4O[C@H](CO)[C@@H](O)[C@H](O)[C@@H]4O[C@H]4O[C@H](CO)[C@@H](O)[C@H](O)[C@@H]4O)[C@@H]3O)[C@H](O)[C@H]2NC(C)=O)[C@@H](CO)O[C@H]1NC(=O)C[C@H](N)C(=O)O [compound 212, Manα1-2Manα1-6(Manα1-3)Manα1-6(Manα1-2Manα1-2Manα1-3)Manβ1-4GlcNAcβ1-4GlcNAcβ-Sp12] | 100.0
CC(=O)N[C@@H]1[C@@H](O)[C@H](O[C@@H]2O[C@H](CO)[C@@H](O[C@@H]3O[C@H](CO[C@H]4O[C@H](CO[C@H]5O[C@H](CO)[C@@H](O)[C@H](O)[C@@H]5O[C@H]5O[C@H](CO)[C@@H](O)[C@H](O)[C@@H]5O)[C@@H](O)[C@H](O[C@H]5O[C@H](CO)[C@@H](O)[C@H](O)[C@@H]5O[C@H]5O[C@H](CO)[C@@H](O)[C@H](O)[C@@H]5O)[C@@H]4O)[C@@H](O)[C@H](O[C@H]4O[C@H](CO)[C@@H](O)[C@H](O)[C@@H]4O[C@H]4O[C@H](CO)[C@@H](O)[C@H](O)[C@@H]4O[C@H]4O[C@H](CO)[C@@H](O)[C@H](O)[C@@H]4O)[C@@H]3O)[C@H](O)[C@H]2NC(C)=O)[C@@H](CO)O[C@H]1NC(=O)C[C@H](N)C(=O)O [compound 213, Manα1-2Manα1-6(Manα1-2Manα1-3)Manα1-6(Manα1-2Manα1-2Manα1-3)Manβ1-4GlcNAcβ1-4GlcNAcβ-Sp12] | 19.8
Manα1-2Manα1-2Manα1-3Manα-Sp9 [compound 208] | 63.8
Manα1-2Manα1-2Manα1-6(Manα1-3)Manα-Sp9 [compound 215] | 78.1
Manα1-2Manα1-3Manα-Sp9 [compound 210] | 57.7
Manα1-2Manα1-6(Manα1-2Manα1-3)Manα1-6(Manα1-2Manα1-2Manα1-3)Manα-Sp9 [compound 317] | 34.9
Manα1-2Manα1-6(Manα1-2Manα1-3)Manα-Sp9 [compound 209] | 39.5
Manα1-2Manα1-6(Manα1-3)Manα1-6(Manα1-2Manα1-2Manα1-3)Manα-Sp9 [compound 316] | 48.8
